Experiment [1] can be described thus: Inhibition of IGF1R-dependent tumor cell growth in human MCF7 cells.
Experiment [2] deals with Proto-oncogene tyrosine-protein kinase Src (Homo sapiens) (UniProt P12931). Put plainly: Inhibition of cSrc.
Proto-oncogene tyrosine-protein kinase Src (Homo sapiens), sequence (P12931 whole entry, looked up): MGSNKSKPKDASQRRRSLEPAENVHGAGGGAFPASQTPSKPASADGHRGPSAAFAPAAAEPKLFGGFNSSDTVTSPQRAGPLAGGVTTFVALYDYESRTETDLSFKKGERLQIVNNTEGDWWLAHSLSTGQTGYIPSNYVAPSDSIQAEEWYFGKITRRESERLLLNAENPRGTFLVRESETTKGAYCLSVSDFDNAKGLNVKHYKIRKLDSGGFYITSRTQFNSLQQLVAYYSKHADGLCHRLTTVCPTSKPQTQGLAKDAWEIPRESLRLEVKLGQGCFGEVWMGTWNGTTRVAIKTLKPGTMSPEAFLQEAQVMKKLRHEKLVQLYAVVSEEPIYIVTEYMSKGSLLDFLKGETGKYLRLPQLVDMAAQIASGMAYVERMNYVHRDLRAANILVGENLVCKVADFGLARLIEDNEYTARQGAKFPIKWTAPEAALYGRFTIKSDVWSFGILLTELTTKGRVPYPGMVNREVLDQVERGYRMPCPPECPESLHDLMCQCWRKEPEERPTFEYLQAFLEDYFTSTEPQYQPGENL

Regarding `COc1ccc(Cl)cc1NC(=O)Nc1cc(C)nc2ccccc12` [TCMDC-125497], half-maximal inhibition in experiment [1] (IC50) was put at 8 µM.

Regarding `O=C1Nc2ccccc2/C1=C\c1c(Cl)[nH]c2ccccc12`, the half-maximal inhibitory concentration (IC50) (commonly the concentration needed to halve the response being measured) in “Inhibition of Cdk5” is 25 µM. In turn, `CCN(CC)CCCCNc1ncc2cc(-c3cc(OC)cc(OC)c3)c(NC(=O)NC(C)(C)C)nc2n1` came in with an IC50 in experiment [2] of 19.8 µM.

For the origin of these results see BindingDB's records for doi:10.1073/pnas.0708800104 (University of Oxford, 2007).
